Non-standard residues stand in square brackets, D forms with d. Residues, ends and D or L forms follow the SMILES beside them. No end group written: not given here.
What was measured:
S. mitis ComD-2 receptor [1] = assay: luminescence reporter competitive inhibition assay (comX expression); type: cell-based, Streptococcus mitis; conditions: for IC50: same reporter strain, competition against 1 μM native S. mitis-CSP-2, 30 min at 37 °C, triplicate on three separate days
Method: As a positive control, 2 μl of S. mitis-CSP-2 and 2 μl of DMSO were added to the same well in triplicate. As a negative control, 4 μl of DMSO was added in triplicate. Then, 2 μl of 15 mg/ml D-luciferin in distilled water was added to each experimental or control well, after which 194 μl of bacteria was added, and the plate was incubated for 30 min at 37 °C. Following incubation, the A600 and luminescence of each experimental well were measured. Results were reported as percent activation, which is the ratio between the luminescence (presented as relative luminescence units, RLU/A600) of the analog and that of the positive control. […] GraphPad Prism was used to calculate the IC50 values, which are the concentration of inhibitor where the response (or binding) is reduced by half. Experiments were performed in triplicate on three separate days.
Antagonism assays were performed at 10 μM concentration of peptides against 1 µM concentration of S. mitis-CSP-2. S. mitis-CSP-2 (1 µM) was used as the positive control (100%) while DMSO as the negative control (0%). For all figures, comX expression is presented as relative luminescence units (RLU) divided by measured cultural optical density (OD). Percent (%) ComD activation was measured by normalizing the RLU/OD value obtained for each peptide to that of the native S. mitis-CSP-2. The results are averages from three replicates and representative of three independent experiments. Error bars represent the standard error of the mean of nine values.
Figure S-8. Primary antagonism screening assay data for t he S. mitis-CSP-2 alanine scan and D-amino acid […]
determine its IC50 value.
Figure S-9. Primary antagonism screening assay data for t he S. mitis-CSP-2 truncated analogs . S. mitis- […]

S. mitis ComD-2 receptor [2] = assay: luminescence reporter activation assay (comX expression); type: cell-based, Streptococcus mitis; conditions: for EC50: S. mitis luciferase reporter strain ATCC49456 PcomX luc::Spc, 30 min at 37 °C, triplicate on three separate days
Method: The ability of synthetic S. mitis-CSP-2 analogs to activate the expression of S. mitis comX was determined using the constructed S. mitis luciferase reporter strain. First, bacteria from the S. mitis luciferase reporter strain freezer stock were streaked onto a Todd-Hewitt broth supplemented with 0.5% yeast extract (THY) agar plate containing 5% horse serum and spectinomycin at a final concentration of 200 μg/ml. The plate was incubated overnight in a CO2 incubator (37 °C with 5% CO2). Fresh colonies were transferred to Tryptic soy broth supplemented with spectinomycin at a final concentration of 200 μg/ml, and the culture was incubated at 37 °C in a 5% CO2-supplemented atmosphere and grown overnight (16 h) until the culture reached an absorbance at 600 nm (optical density at 600 nm [A600]) of 0.45. Overnight cultures of the S. mitis reporter strain at A600 0.45 were diluted 1:10 in Tryptic soy broth and the liquid cultures were incubated in a CO2 incubator for 30 to 45 min, until the bacteria reached early exponential stage (A600 ∼ 0.2) as determined by using a plate reader. During incubation, clear-bottom white 96-well microtiter plates were prepared for the activation assays. An initial activation screening was performed at a high peptide concentration (10,000 nM) for all the S. mitis-CSP-2 analogs (Figs. S1–S7). For each experimental sample, a total of 2 μl of a 1 mM CSP stock solution in dimethyl sulfoxide (DMSO) was added in triplicate to the clear-bottom white 96-well microtiter plate. A total of 2 μl of DMSO was added in triplicate and served as the negative control, and 2 μl of a 1 mM stock of native S. mitis-CSP-2 was added in triplicate as a positive control. In the dark, 2 μl of a 15 mg/ml D-luciferin stock in distilled water was added to each well. Following the addition of synthetic CSPs and D-luciferin, 196 μl of the diluted bacterial culture was added to each well, and the plate was incubated for 30 min at 37 °C. Following incubation, the A600 and luminescence of each experimental well were measured. Results were reported as percent activation, which is the ratio between the luminescence (presented as relative luminescence units, RLU/A600) of the analog and that of the positive control. […] EC50 values, the concentration of the peptide to achieve a half maximal response, for each activator were calculated using GraphPad Prism (https://www.graphpad.com/). Experiments were performed in triplicate on three separate days.
Primary reporter gene assay data
Agonism assays were performed at a 10 µM concentration of synthetic CSP. S. mitis-CSP-2 was used as the positive control (100%) while DMSO as the negative control (0%). For all figures, comX expression is presented as relative luminescence units (RLU) divided by measured cultural optical density (OD). Percent (%) ComD activation was measured by normalizing the RLU/OD value obtained for each peptide to that of the native S. mitis-CSP-2. The results are averages from three replicates and representative of three independent experiments. Error bars represent the standard error of the mean of nine values.
Figure S-1. Primary agonism screening assay data for the S. mitis-CSP-2 alanine scan analogs. Peptides […]
(1 picture or pasted object on this page, not shown here)

[3] = biological target: pneumococcus ComD1 receptor; conditions: read-out: EC50, S. pneumoniae ComD1; cited from earlier work
Excerpt: (§1) Table 5 EC50 or IC50 values of select Streptococcus mitis-CSP-2–based pneumococcal QS modulators against the pneumococcus ComD1 and ComD2 and the S. mitis ComD-2 receptors ^a | column: Streptococcus pneumoniae ^b / ComD1 / EC50 or IC50∗ (nM) || In our previous work, we utilized the S. mitis-CSP-2 scaffold to develop analogs capable of modulating the two pneumococcal ComD receptors at low nanomolar concentrations ([2]). We wanted to evaluate whether the optimization of the S. mitis-CSP-2 scaffold to the pneumococcus ComD receptors affected the ability of the modified analogs to interact with the S. mitis ComD-2 receptor.

[4] = biological target: pneumococcus ComD2 receptor; conditions: read-out: EC50, S. pneumoniae ComD2; cited from earlier work
Excerpt: as §1, with “/ ComD2” for “/ ComD1”

| Compound | EC50 (S. mitis ComD-2 receptor [2]) [nM] | EC50 [3] [nM] | EC50 [4] [nM] | other results |
| --- | --- | --- | --- | --- |
| CC[C@H](C)[C@H](NC(=O)[C@H](C)N)C(=O)N[C@@H](CCCNC(=N)N)C(=O)N[C@@H](CCC(N)=O)C(=O)N[C@H](C(=O)N[C@@H](Cc1c[nH]cn1)C(=O)N[C@@H](CC(N)=O)C(=O)N[C@H](C(=O)N[C@@H](Cc1ccccc1)C(=O)N[C@H](Cc1ccccc1)C(=O)N[C@H](CC(N)=O)C(=O)N[C@@H](Cc1ccccc1)C(=O)N[C@@H](Cc1ccccc1)C(=O)N[C@@H](CCCCN)C(=O)N[C@@H](CCCNC(=N)N)C(=O)N[C@@H](CCCNC(=N)N)C(=O)O)[C@@H](C)CC)[C@@H](C)O [S. mitis-CSP-2-E1Af10n11] (H-AIRQTHNIF[dF][dN]FFKRR-OH; N-terminus and C-terminus assumed) | – | – | – | IC50 (S. mitis ComD-2 receptor [1]): > 1000 nM |
| CC[C@H](C)[C@H](NC(=O)[C@H](CC(N)=O)NC(=O)[C@@H](Cc1c[nH]cn1)NC(=O)[C@@H](NC(=O)[C@H](CCC(N)=O)NC(=O)[C@H](CCCNC(=N)N)NC(=O)[C@@H](NC(=O)[C@@H](N)CCC(=O)O)[C@@H](C)CC)[C@@H](C)O)C(=O)N[C@@H](Cc1ccccc1)C(=O)N[C@@H](Cc1ccccc1)C(=O)N[C@@H](CC(N)=O)C(=O)N[C@@H](Cc1ccccc1)C(=O)N[C@@H](Cc1ccccc1)C(=O)N[C@@H](CCCCN)C(=O)N[C@@H](CCCNC(=N)N)C(=O)N[C@@H](CCCNC(=N)N)C(=O)O [S. mitis-CSP-2-h6] (H-EIRQT[dH]NIFFNFFKRR-OH; N-terminus and C-terminus assumed) | > 1000 | – | – | – |
| CC[C@H](C)[C@H](NC(=O)[C@@H](N)CCC(=O)O)C(=O)N[C@@H](CCCNC(=N)N)C(=O)N[C@@H](CCC(N)=O)C(=O)N[C@H](C(=O)N[C@@H](Cc1c[nH]cn1)C(=O)N[C@H](CC(N)=O)C(=O)N[C@H](C(=O)N[C@@H](Cc1ccccc1)C(=O)N[C@@H](Cc1ccccc1)C(=O)N[C@@H](CC(N)=O)C(=O)N[C@@H](Cc1ccccc1)C(=O)N[C@@H](Cc1ccccc1)C(=O)N[C@@H](CCCCN)C(=O)N[C@@H](CCCNC(=N)N)C(=O)N[C@@H](CCCNC(=N)N)C(=O)O)[C@@H](C)CC)[C@@H](C)O [S. mitis-CSP-2-n7] (H-EIRQTH[dN]IFFNFFKRR-OH; N-terminus and C-terminus assumed) | > 1000 | – | – | – |
| CC[C@H](C)[C@H](NC(=O)[C@H](CC(N)=O)NC(=O)[C@H](Cc1c[nH]cn1)NC(=O)[C@@H](NC(=O)[C@@H](CCC(N)=O)NC(=O)[C@H](CCCNC(=N)N)NC(=O)[C@@H](NC(=O)[C@@H](N)CCC(=O)O)[C@@H](C)CC)[C@@H](C)O)C(=O)N[C@@H](Cc1ccccc1)C(=O)N[C@@H](Cc1ccccc1)C(=O)N[C@@H](CC(N)=O)C(=O)N[C@@H](Cc1ccccc1)C(=O)N[C@@H](Cc1ccccc1)C(=O)N[C@@H](CCCCN)C(=O)N[C@@H](CCCNC(=N)N)C(=O)N[C@@H](CCCNC(=N)N)C(=O)O [S. mitis-CSP-2-q4] (H-EIR[dQ]THNIFFNFFKRR-OH; N-terminus and C-terminus assumed) | > 1000 | – | – | – |
| CC[C@H](C)[C@H](NC(=O)[C@H](CC(N)=O)NC(=O)[C@H](Cc1c[nH]cn1)NC(=O)[C@H](NC(=O)[C@H](CCC(N)=O)NC(=O)[C@H](CCCNC(=N)N)NC(=O)[C@@H](NC(=O)[C@@H](N)CCC(=O)O)[C@@H](C)CC)[C@H](C)O)C(=O)N[C@@H](Cc1ccccc1)C(=O)N[C@@H](Cc1ccccc1)C(=O)N[C@@H](CC(N)=O)C(=O)N[C@@H](Cc1ccccc1)C(=O)N[C@@H](Cc1ccccc1)C(=O)N[C@@H](CCCCN)C(=O)N[C@@H](CCCNC(=N)N)C(=O)N[C@@H](CCCNC(=N)N)C(=O)O [S. mitis-CSP-2-t5] (H-EIRQ[dT]HNIFFNFFKRR-OH; N-terminus and C-terminus assumed) | > 1000 | – | – | – |
| AIRQTHNIFFNAFKRR [S. mitis-CSP-2-E1AF12A] | – | – | – | IC50 (S. mitis ComD-2 receptor [1]): > 1000 nM |
| AIRQTHNIFFNFAKRR [S. mitis-CSP-2-E1AF13A] | – | – | – | IC50 (S. mitis ComD-2 receptor [1]): > 1000 nM |
| EIRQTANIFFNFFKRR [S. mitis-CSP-2-H6A] | > 1000 | – | – | – |
| EIRQTHNIAFNFFKRR [S. mitis-CSP-2-F9A] | > 1000 | – | – | – |
| EIRQTHNIFFNFF [S. mitis-CSP-2-des-K14R15R16, truncated analog of S. mitis-CSP-2] | – | – | – | ComD-2 activation: EC50 not determined due to the analog's low induction in primary agonism screening assay (S. mitis ComD-2 receptor [2]; initial screening at 10,000 nM peptide): complete loss of activity |
| EMRLTHFIFFNFFKRR [S. mitis-CSP-2-I2MQ4LN7F] | > 1000 | 137 | 75.6 | – |
| EMRLTHNFFFNFFKRR [S. mitis-CSP-2-I2MQ4LI8F, S. mitis-CSP-2-based pneumococcal QS modulator from previous study] | – | 42 | 30 | – |
| EMRLTHNIFFFFFKRR [S. mitis-CSP-2-I2MQ4LN11F] | > 1000 | 14.8 | 188 | – |
| EMRQTHFFFFNFFKRR [S. mitis-CSP-2-I2MN7FI8F] | > 1000 | 63.6 | 13.5 | – |
| EMRQTHFIFFNLFKRR [S. mitis-CSP-2-I2MN7FF12L] | > 1000 | 72.8 | 112 | – |
| EMRQTHIFFFNFFKRR [S. mitis-CSP-2-I2MN7II8F] | > 1000 | 61.6 | 2.67 | – |
| EMRQTHNFFFFFFKRR [S. mitis-CSP-2-I2MI8FN11F, S. mitis-CSP-2-based pneumococcal QS modulator from previous study] | – | 6.95 | 26.2 | – |
| EMRQTHNFFFNFFKRR [S. mitis-CSP-2-I2MI8F, S. mitis-CSP-2-based pneumococcal QS modulator from previous study] | – | 151 | 83.2 | – |
| IRQTHNIFFNFFKRR [S. mitis-CSP-2-des-E1] | – | – | – | % ComD activation, primary antagonism screening (S. mitis ComD-2 receptor [1]; 10 μM peptide against 1 µM S. mitis-CSP-2 (100%), DMSO 0%): less than 50%; IC50 (S. mitis ComD-2 receptor [1]): > 1000 nM |

— paper PMC10714334, “Developing multispecies quorum-sensing modulators based on the Streptococcus mitis competence-stimulating peptide” (The Journal of Biological Chemistry, 2023)
